Assay results taken from the supplement of paper PMC11061612.

Columns and labels:
[1] = test system: NCI-H1666 (Lung Adenocarcinoma); assay: Bliss excess, mean over the matrix (fraction); higher = more synergy
Method in brief: (§1)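 After 24 hours at 37°C and 5% CO2 in 1536-well plates, cells in DMEM/F12 or RPMI plus 10% FBS received two-drug dose matrices for 72 hours. Viability came from CellTiter-Glo 2.0 luminescence and was scaled as inhibition, anchored at 0 by vehicle wells and at 1 by blank wells. Combination Emax is taken as the second-highest inhibition in the matrix, and Bliss excess as the observed combination effect less EA + EB − EA·EB, with EA and EB the single-agent effects.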

[2] = test system: NCI-H1693 (Lung Adenocarcinoma); assay: as above
Method in brief: as §1

[3] = test system: COR-L311 (Small Cell Lung Carcinoma); assay: as above
Method in brief: as §1

[4] = test system: CAL-29 (Bladder Carcinoma); assay: combination Emax (second highest fraction inhibited in the dose matrix, 72 h); higher = more inhibition; extreme values may be limits of the assay
Method in brief: as §1

[5] = test system: CCK-81 (Colorectal Carcinoma); assay: as above
Method in brief: as §1

[6] = test system: SK-MES-1 (Squamous Cell Lung Carcinoma); assay: as above
Method in brief: as §1

[7] = test system: NCI-H1581 (Non-Small Cell Lung Carcinoma); assay: as above
Method in brief: as §1

[8] = test system: ECC10 (Gastric Carcinoma); assay: as above
Method in brief: as §1

Hs-445 (Non-Cancerous) = assay: as above
Method in brief: as §1

IGR-37 (Melanoma) = assay: as above
Method in brief: as §1

A498 (Kidney Carcinoma) = assay: as above
Method in brief: as §1

[9] = test system: JSC-1 (B-Cell Non-Hodgkin's Lymphoma); assay: as above
Method in brief: as §1

NY (Osteosarcoma) = assay: as above
Method in brief: as §1

8-MG-BA (Glioblastoma) = assay: as above
Method in brief: as §1

ARH-77 (Non-Cancerous) = assay: as above
Method in brief: as §1

[10] = test system: NCI-H64 (Small Cell Lung Carcinoma); assay: as above
Method in brief: as §1

[11] = test system: COR-L311 (Small Cell Lung Carcinoma); assay: as above
Method in brief: as §1

[12] = test system: COLO-824 (Breast Carcinoma); assay: as above
Method in brief: as §1

[13] = test system: A549 (Lung Adenocarcinoma); assay: as above
Method in brief: as §1

[14] = test system: HCC1954 (Breast Carcinoma); assay: as above
Method in brief: as §1
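Throughout, for Bliss excess, mean over the matrix: after 72 h of two-drug dosing.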

Row | SMILES | Bliss excess [1] | Bliss excess [2] | Bliss excess [3] | combination Emax [4] | combination Emax [5] | combination Emax [6] | combination Emax [7] | combination Emax [8] | combination Emax (Hs-445 (Non-Cancerous)) | combination Emax (IGR-37 (Melanoma)) | combination Emax (A498 (Kidney Carcinoma)) | combination Emax [9] | combination Emax (NY (Osteosarcoma)) | combination Emax (8-MG-BA (Glioblastoma)) | combination Emax (ARH-77 (Non-Cancerous)) | combination Emax [10] | combination Emax [11] | combination Emax [12] | combination Emax [13] | combination Emax [14]
1 | COc1cc2ncnc(Nc3ccc(F)c(Cl)c3)c2cc1OCCCN1CCOCC1 [Gefitinib] + CC(C)n1c(=O)n(C)c2cnc3cc(F)c(-c4ccc(OCCCN5CCCCC5)nc4)cc3c21 [AZD1390] (first compound max 10 µM, 7x7, partner max 0.3 µM) | -0.0064 | -0.04 | -0.0545 | 0.228 | 0.661 | 0.408 | 0.0926 | 0.12 | 0.369 | 0.252 | 0.298 | 0.249 | 0.239 | 0.268 | 0.272 | 0.152 | 0.0812 | 0.366 | 0.435 | 0.267
2 | CS(=O)(=O)CCNCc1ccc(-c2ccc3ncnc(Nc4ccc(OCc5cccc(F)c5)c(Cl)c4)c3c2)o1 [Lapatinib] + C[C@@H](Oc1cc(-c2cnn(C3CCNCC3)c2)cnc1N)c1c(Cl)ccc(F)c1Cl [Crizotinib] (first compound max 10 µM, 7x7, partner max 10 µM) | -0.0698 | -0.0069 | -0.0024 | 0.952 | 0.975 | 0.966 | 0.678 | 0.97 | 0.783 | 0.906 | 0.926 | 0.925 | 0.341 | 0.998 | 0.942 | 0.823 | 0.924 | 0.94 | 0.988 | 0.91
3 | CC(=O)c1c(C)c2cnc(Nc3ccc(N4CCNCC4)cn3)nc2n(C2CCCC2)c1=O [Palbociclib] + CC1(C)CCC(CN2CCN(c3ccc(C(=O)NS(=O)(=O)c4ccc(NCC5CCOCC5)c([N+](=O)[O-])c4)c(Oc4cnc5[nH]ccc5c4)c3)CC2)=C(c2ccc(Cl)cc2)C1 [Venetoclax] (first compound max 10 µM, 7x7, partner max 1 µM) | -0.069 | 0.0079 | -0.0186 | 0.0999 | 0.106 | 0.208 | 0.291 | 0.915 | 0.746 | 0.215 | 0.318 | 0.506 | 0.0868 | 0.366 | 0.725 | 0.17 | 0.632 | 0.844 | 0.64 | 0
4 | CC(=O)c1c(C)c2cnc(Nc3ccc(N4CCNCC4)cn3)nc2n(C2CCCC2)c1=O [Palbociclib] + Cc1c2c(nn1C)CSCc1cc(n(C)n1)CSc1cc(c3ccccc3c1)OCCCc1c(C(=O)O)n(C)c3c-2c(Cl)ccc13 [AZD5991] (first compound max 10 µM, 7x7, partner max 1 µM) | -0.0198 | -0.0168 | -0.0139 | 0.175 | 0.941 | 0.266 | 0.951 | 0.911 | 0.337 | 0.325 | 0.406 | 1 | 0.534 | 0.63 | 0.556 | 0.213 | 0.534 | 0.708 | 0.64 | 0.712
5 | CC(=O)c1c(C)c2cnc(Nc3ccc(N4CCNCC4)cn3)nc2n(C2CCCC2)c1=O [Palbociclib] + Cn1cnc2c(F)c(Nc3ccc(Br)cc3Cl)c(C(=O)NOCCO)cc21 [Selumetinib] (first compound max 10 µM, 7x7, partner max 10 µM) | -0.0183 | -0.0306 | -0.0334 | 0.301 | 0.477 | 0.645 | 0.536 | 0.539 | 0.262 | 0.872 | 0.372 | 0.633 | 0.194 | 0.321 | 0.61 | 0.19 | 0.231 | 0.345 | 0.764 | 0.178
6 | COc1cccc(OCCCN)c1-c1cc(Nc2cnc(C#N)cn2)n[nH]1 [Prexasertib] + C=CCn1c(=O)c2cnc(Nc3ccc(N4CCN(C)CC4)cc3)nc2n1-c1cccc(C(C)(C)O)n1 [AZD1775] (first compound max 1 µM, partner max 1 µM) | -0.0629 | -0.0139 | 0.0559 | 0.876 | 0.945 | 0.777 | 0.75 | 0.904 | 0.947 | 0.879 | 0.598 | 0.998 | 0.663 | 0.977 | 0.996 | 0.925 | 0.861 | 0.861 | 0.776 | 0.963
7 | COc1cccc(OCCCN)c1-c1cc(Nc2cnc(C#N)cn2)n[nH]1 [Prexasertib] + CCc1c2c(nc3ccc(O)cc13)-c1cc3c(c(=O)n1C2)COC(=O)[C@]3(O)CC [SN-38] (first compound max 1 µM, 7x7, partner max 0.3 µM) | -0.0269 | 0.0166 | -0.0058 | 0.98 | 0.835 | 0.953 | 0.897 | 1 | 1 | 0.942 | 0.733 | 0.987 | 0.935 | 0.989 | 1 | 0.95 | 1 | 1 | 0.796 | 0.929
8 | COc1cccc(OCCCN)c1-c1cc(Nc2cnc(C#N)cn2)n[nH]1 [Prexasertib] + CN(C)CCCOc1ccc(-c2ccc3ncc4c(c3c2)n(C2CCOCC2)c(=O)n4C)cn1 [AZD0156] (first compound max 1 µM, 7x7, partner max 1 µM) | -0.0291 | -0.0349 | -0.0532 | 0.836 | 0.927 | 0.77 | 0.284 | 0.671 | 0.97 | 0.912 | 0.725 | 1 | 0.62 | 0.934 | 1 | 0.787 | 0.77 | 0.785 | 0.536 | 0.862
9 | COc1cccc(OCCCN)c1-c1cc(Nc2cnc(C#N)cn2)n[nH]1 [Prexasertib] + C[C@@H]1COCCN1C2=NC(=NC(=C2)C3(CC3)[S@](=N)(=O)C)C4=C5C=CNC5=NC=C4 [AZD6738] (first compound max 1 µM, 7x7, partner max 10 µM) | 0.0338 | 0.0816 | -0.0363 | 0.839 | 0.929 | 0.842 | 0.566 | 0.712 | 0.951 | 0.896 | 0.692 | 0.995 | 0.637 | 0.926 | 1 | 0.835 | 0.771 | 0.796 | 0.864 | 0.878
10 | COc1cccc(OCCCN)c1-c1cc(Nc2cnc(C#N)cn2)n[nH]1 [Prexasertib] + Cc1cc2ncnn2cc1Nc1ncc2c(n1)n(C1CCOCC1)c(=O)n2C [AZD7648] (first compound max 1 µM, 7x7, partner max 10 µM) | -0.0176 | 0.0337 | -0.0289 | 0.79 | 0.903 | 0.804 | 0.418 | 0.671 | 0.954 | 0.923 | 0.642 | 1 | 0.674 | 0.951 | 0.994 | 0.846 | 0.789 | 0.783 | 0.63 | 0.843
11 | COc1cccc(OCCCN)c1-c1cc(Nc2cnc(C#N)cn2)n[nH]1 [Prexasertib] + O=C(c1cc(Cc2n[nH]c(=O)c3ccccc23)ccc1F)N1CCN(C(=O)C2CC2)CC1 [Olaparib] (first compound max 1 µM, 7x7, partner max 10 µM) | -0.0096 | -0.1 | -0.101 | 0.714 | 0.841 | 0.834 | 0.563 | 0.728 | 0.949 | 0.961 | 0.591 | 0.996 | 0.652 | 0.969 | 0.969 | 0.835 | 0.803 | 0.77 | 0.614 | 0.866
12 | COc1cc2c(cc1OCCCCCOc1cc3c(cc1OC)C(=O)N1C=C(C)C[C@H]1C=N3)N=C[C@@H]1CC(C)=CN1C2=O [SG3199] + O=C(c1cc(Cc2n[nH]c(=O)c3ccccc23)ccc1F)N1CCN(C(=O)C2CC2)CC1 [Olaparib] (first compound max 0.001 µM, 7x7, partner max 10 µM) | -0.0477 | -0.0209 | 0.0282 | 0.0858 | 0.184 | 0.103 | 0.136 | 0.102 | 0.086 | 0.0632 | 0.173 | 0.116 | 0.0994 | 0.267 | 0.221 | 0.0693 | 0.515 | 0.147 | 0.234 | 0.165
13 | CCc1c2c(nc3ccc(O)cc13)-c1cc3c(c(=O)n1C2)COC(=O)[C@]3(O)CC [SN-38] + CN(C)CCCOc1ccc(-c2ccc3ncc4c(c3c2)n(C2CCOCC2)c(=O)n4C)cn1 [AZD0156] (first compound max 0.3 µM, 7x7, partner max 1 µM) | 0.0313 | -0.0099 | -0.152 | 0.928 | 0.673 | 0.804 | 0.785 | 0.945 | 0.993 | 0.826 | 0.5 | 0.983 | 0.855 | 0.975 | 0.992 | 0.407 | 0.821 | 0.509 | 0.755 | 0.376
